This is an account of results in US9296741B2, “Bromodomain inhibitors” (priority 2012, dated 2016).

The nature of data set [1]: Rat liver microsome stability assay. In kind it is in vitro ADME. Conditions: rat liver microsomes (male Sprague-Dawley), 0.5 μM test compound, pH 7.4, 37° C.; for half-life at 0.5 μM: 0.25 mg/mL microsomal protein, read-out: Stability in rat liver microsomes (t1/2 in minutes). On the technique in general: Microsomes from liver hold many membrane-bound enzymes, among them those of drug oxidation.

Data set [2] in a line: Mouse liver microsome stability assay. It counts as in vitro ADME. The note with it: male, CD1, mouse, microsomes, pH 7.4.
Data set [3] has as its target human BRD4 second bromodomain (BDII_E352-M457) (Homo sapiens (Human), UniProt O60885). Kind of data set: TR-FRET bromodomain binding assay, BRD4 second bromodomain. Background: TR-FRET usually uses a lanthanide donor and a delayed reading to cut background.
Data set [4] deals with human BRD4 first bromodomain (BDI_K57-E168) (Homo sapiens (Human), UniProt O60885). Kind of data set: TR-FRET bromodomain binding assay, BRD4 first bromodomain.
Data set [5] in a line: Human liver microsome stability assay. It counts as in vitro ADME. Conditions: both sexes, human, microsomes, pH 7.4.

Molecules are shown by their SMILES.

`Cn1cc(-c2cc(S(C)(=O)=O)ccc2Oc2cc(F)ccc2F)c2cc[nH]c2c1=O` [Example 173, 4-[2-(2,5-difluorophenoxy)-5-(methylsulfonyl)phenyl]-6-methyl-1,6-dihydro-7H-pyrrolo[2,3-c]pyridin-7-one]: the values for the half-life at 0.5 μM in data set [1], in data set [2] and in data set [5] were 5 min, 16 min and 38 min, respectively. For the same compound, the Ki (in general, a dissociation constant, usually derived from enzyme kinetics or from competition with a known ligand) came out at 6.6 nM in data set [3] and 15.7 nM in data set [4].

For the compound `CN1CCC[C@H]1COc1ccc(S(C)(=O)=O)cc1-c1cn(C)c(=O)c2[nH]ccc12` [Example 222, 6-methyl-4-[2-{[(2S)-1-methylpyrrolidin-2-yl]methoxy}-5-(methylsulfonyl)phenyl]-1,6-dihydro-7H-pyrrolo[2,3-c]pyridin-7-one], the half-life at 0.5 μM came to 80 min in data set [1], 98 min in data set [2] and 65 min in data set [5]. Also, the results for the Ki in data set [3] and in data set [4] were 969 nM and 225 nM, respectively.

In the case of `CCS(=O)(=O)Nc1ccc(Oc2ccc(F)cc2F)c(-c2cn(C)c(=O)c3[nH]cc(CN4CCOCC4)c23)c1` [Example 350, N-{4-(2,4-difluorophenoxy)-3-[6-methyl-3-(morpholin-4-ylmethyl)-7-oxo-6,7-dihydro-1H-pyrrolo[2,3-c]pyridin-4-yl]phenyl}ethanesulfonamide], the half-life at 0.5 μM is 32 min in data set [1], 23 min in data set [2] and 59 min in data set [5]. In addition, the results for the inhibition constant Ki in data set [3] and in data set [4] were 505 nM and 1400 nM, respectively.

On to `CN(C)CCNC(=O)c1ccc(Oc2ccc(F)cc2F)c(-c2cn(C)c(=O)c3[nH]ccc23)c1` [Example 131, 4-(2,4-difluorophenoxy)-N-[2-(dimethylamino)ethyl]-3-(6-methyl-7-oxo-6,7-dihydro-1H-pyrrolo[2,3-c]pyridin-4-yl)benzamide], for which the half-life at 0.5 μM in data set [1] is 71 min; in data set [2], 83 min; in data set [5] it was > 120 min. Further, the values for the Ki in data set [3] and in data set [4] were 60 nM and 98.6 nM, respectively.

`CC(C)c1ccc(Oc2ccc(S(C)(=O)=O)cc2-c2cn(C)c(=O)c3[nH]ccc23)cc1` [Example 192, 6-methyl-4-{5-(methylsulfonyl)-2-[4-(propan-2-yl)phenoxy]phenyl}-1,6-dihydro-7H-pyrrolo[2,3-c]pyridin-7-one]: the half-life at 0.5 μM amounted to 5 min in data set [1], 3 min in data set [2] and 9 min in data set [5]. Also, the Ki was found to be 9.6 nM in data set [3] and 51.3 nM in data set [4].

On to `Cn1cc(-c2cc(S(C)(=O)=O)ccc2Oc2cc(F)c(F)c(F)c2)c2cc[nH]c2c1=O` [Example 194, 6-methyl-4-[5-(methylsulfonyl)-2-(3,4,5-trifluorophenoxy)phenyl]-1,6-dihydro-7H-pyrrolo[2,3-c]pyridin-7-one], for which the values for the half-life at 0.5 μM in data set [1], in data set [2] and in data set [5] were 38 min, 49 min and 41 min, respectively. Moreover, the Ki was 19.1 nM in data set [3] and 28.9 nM in data set [4].

Take `Cn1cc(-c2cc(C(=O)NCc3ccc(F)c(F)c3)ccc2Oc2ccc(F)cc2F)c2cc[nH]c2c1=O` [Example 125, N-(3,4-difluorobenzyl)-4-(2,4-difluorophenoxy)-3-(6-methyl-7-oxo-6,7-dihydro-1H-pyrrolo[2,3-c]pyridin-4-yl)benzamide]: the half-life at 0.5 μM was 23 min in data set [1], 12 min in data set [2] and 45 min in data set [5]. Besides, the inhibitory constant (Ki) in data set [3] amounted to 274 nM; in data set [4], 215 nM.

In the case of `Cn1cc(-c2cc(C(=O)N3CCN(C(=O)N4CCCC4)CC3)ccc2Oc2ccc(F)cc2F)c2cc[nH]c2c1=O` [Example 119, 4-[2-(2,4-difluorophenoxy)-5-{[4-(pyrrolidin-1-ylcarbonyl)piperazin-1-yl]carbonyl}phenyl]-6-methyl-1,6-dihydro-7H-pyrrolo[2,3-c]pyridin-7-one], the half-life at 0.5 μM amounted to 24 min in data set [1], 2 min in data set [2] and 14 min in data set [5]. For the same compound, the Ki in data set [3] was found to be 22.5 nM; in data set [4], 44.4 nM.

Consider `Cn1cc(-c2cc(C(=O)NCc3cccnc3)ccc2Oc2ccc(F)cc2F)c2cc[nH]c2c1=O` [Example 128, 4-(2,4-difluorophenoxy)-3-(6-methyl-7-oxo-6,7-dihydro-1H-pyrrolo[2,3-c]pyridin-4-yl)-N-(pyridin-3-ylmethyl)benzamide], for which the half-life at 0.5 μM came out at 21 min in data set [1], 4 min in data set [2] and 11 min in data set [5]. Also, the Ki in data set [3] is 112 nM; in data set [4] it was 72.5 nM.

With `Cn1cc(-c2cc(S(C)(=O)=O)ccc2Oc2ccc3cccnc3c2)c2cc[nH]c2c1=O` [Example 188, 6-methyl-4-[5-(methylsulfonyl)-2-(quinolin-7-yloxy)phenyl]-1,6-dihydro-7H-pyrrolo[2,3-c]pyridin-7-one], the half-life at 0.5 μM came to 22 min in data set [1], 6 min in data set [2] and 26 min in data set [5]. For the same compound, the Ki in data set [3] stood at 18 nM; in data set [4] it was 29.4 nM.

On to `Cn1cc(-c2cc(S(C)(=O)=O)ccc2OCCN2CCNC2=O)c2cc[nH]c2c1=O` [Example 218, 6-methyl-4-{5-(methylsulfonyl)-2-[2-(2-oxoimidazolidin-1-yl)ethoxy]phenyl}-1,6-dihydro-7H-pyrrolo[2,3-c]pyridin-7-one], for which the half-life at 0.5 μM in data set [1], in data set [2] and in data set [5] was > 120 min throughout. The Ki is 68.9 nM in data set [3] and 69.3 nM in data set [4].

For the compound `CN1CCCC1CCOc1ccc(S(C)(=O)=O)cc1-c1cn(C)c(=O)c2[nH]ccc12` (stereo not drawn) [Example 225, 6-methyl-4-{2-[2-(1-methylpyrrolidin-2-yl)ethoxy]-5-(methylsulfonyl)phenyl}-1,6-dihydro-7H-pyrrolo[2,3-c]pyridin-7-one], the values for the half-life at 0.5 μM in data set [1], in data set [2] and in data set [5] were 59 min, > 120 min and 52 min, respectively. Also, the Ki came out at 845 nM in data set [3] and 264 nM in data set [4].

In the case of `Cn1cc(-c2cc(S(C)(=O)=O)ccc2Oc2cccnc2)c2cc[nH]c2c1=O` [Example 190, 6-methyl-4-[5-(methylsulfonyl)-2-(pyridin-3-yloxy)phenyl]-1,6-dihydro-7H-pyrrolo[2,3-c]pyridin-7-one], the half-life at 0.5 μM amounted to 66 min in data set [1], 8 min in data set [2] and 27 min in data set [5].

In the case of `Cn1cc(-c2cc(C(=O)NCCN3CCCC3=O)ccc2Oc2ccc(F)cc2F)c2cc[nH]c2c1=O` [Example 122, 4-(2,4-difluorophenoxy)-3-(6-methyl-7-oxo-6,7-dihydro-1H-pyrrolo[2,3-c]pyridin-4-yl)-N-[2-(2-oxopyrrolidin-1-yl)ethyl]benzamide], the half-life at 0.5 μM was found to be 16 min in data set [1], 2 min in data set [2] and 8 min in data set [5].

Consider `CCS(=O)(=O)c1ccc(OC2CCC(=O)CC2)c(-c2cn(C)c(=O)c3[nH]ccc23)c1` [Example 199, 4-{5-(ethylsulfonyl)-2-[(4-oxocyclohexyl)oxy]phenyl}-6-methyl-1,6-dihydro-7H-pyrrolo[2,3-c]pyridin-7-one], for which the “Stability in rat liver microsomes (t1/2 in minutes)” value in data set [1] ([…] microsomal protein) came out at 1 min. The half-life at 0.5 μM in data set [2] was found to be 3 min; in data set [5], 94 min.
